Reference: US11439707B2, “Hypocrellin derivative substituted both in a peri-position and in 2-position by amino, preparation method, and application thereof” (priority 2017, dated 2022)

Experiments:
[1] = absorption spectrum (maximum absorption wavelength, molar extinction coefficient); assay type: physicochemical
[2] = singlet oxygen efficiency test, reference rose bengal; assay type: physicochemical

For COc1c(NCCC(=O)O)c2c(=O)cc(OC)c3c4c(OC)cc(=O)c5c(O)c(NCCC(=O)O)c6c(c(c1C(C(C)=O)C(C)=C6)c23)c54 (stereo not drawn) [HB-10b], the maximum absorption wavelength [1] was 615 nm, the molar extinction coefficient [1] was 31,500 M^−1cm^−1 and the singlet oxygen yield [2] was 34%.
For COc1c2c3c4c(c(NCCC(=O)O)c(=O)c5c(NCCC(=O)O)cc(OC)c(c6c(OC)cc(O)c(c1=O)c63)c54)C=C(C)C2C(C)=O (stereo not drawn) [HB-10c], the maximum absorption wavelength [1] was 622 nm, the molar extinction coefficient [1] was 33,000 M^−1cm^−1 and the singlet oxygen yield [2] was 38%.
For COc1c2c3c4c(c(NCCC(=O)O)c(=O)c5c(O)cc(OC)c(c6c(OC)cc(NCCC(=O)O)c(c1=O)c63)c54)C=C(C)C2C(C)=O (stereo not drawn) [HB-10d], the maximum absorption wavelength [1] was 621 nm, the molar extinction coefficient [1] was 32,500 M^−1cm^−1 and the singlet oxygen yield [2] was 32%.
For COc1c(O)c2c(=O)cc(OC)c3c4c(OC)cc(=O)c5c(NCCS(=O)(=O)O)c(NCCS(=O)(=O)O)c6c(c(c1C(C(C)=O)C(C)=C6)c23)c54 (stereo not drawn) [HB-11a-C2-SO3H], the maximum absorption wavelength [1] was 620 nm, the molar extinction coefficient [1] was 30,000 M^−1cm^−1 and the singlet oxygen yield [2] was 32%.
With COc1c(NCCCCS(=O)(=O)O)c2c(=O)cc(OC)c3c4c(OC)cc(=O)c5c(O)c(NCCCCS(=O)(=O)O)c6c(c(c1C(C(C)=O)C(C)=C6)c23)c54 (stereo not drawn) [HB-11b-C4-SO3H] the maximum absorption wavelength [1] was 620 nm, the molar extinction coefficient [1] was 30,500 M^−1cm^−1 and the singlet oxygen yield [2] was 34%.
With COc1c2c3c4c(c(NCCCCCCS(=O)(=O)O)c(=O)c5c(NCCCCCCS(=O)(=O)O)cc(OC)c(c6c(OC)cc(O)c(c1=O)c63)c54)C=C(C)C2C(C)=O (stereo not drawn) [HB-11c-C6-SO3H] the maximum absorption wavelength [1] was 626 nm, the molar extinction coefficient [1] was 31,500 M^−1cm^−1 and the singlet oxygen yield [2] was 38%.
With COc1c2c3c4c(c(NCCCCS(=O)(=O)O)c(=O)c5c(O)cc(OC)c(c6c(OC)cc(NCCCCS(=O)(=O)O)c(c1=O)c63)c54)C=C(C)C2C(C)=O (stereo not drawn) [HB-11d-C4-SO3H] the maximum absorption wavelength [1] was 626 nm, the molar extinction coefficient [1] was 30,500 M^−1cm^−1 and the singlet oxygen yield [2] was 32%.
For COc1c(O)c2c(=O)cc(OC)c3c4c(OC)cc(=O)c5c(NCCS(=O)(=O)OC)c(NCCS(=O)(=O)OC)c6c(c(c1C(C(C)=O)C(C)=C6)c23)c54 (stereo not drawn) [HB-12a], the maximum absorption wavelength [1] was 621 nm, the molar extinction coefficient [1] was 23,500 M^−1cm^−1 and the singlet oxygen yield [2] was 20%.
For COc1c(NCCS(=O)(=O)OC)c2c(=O)cc(OC)c3c4c(OC)cc(=O)c5c(O)c(NCCS(=O)(=O)OC)c6c(c(c1C(C(C)=O)C(C)=C6)c23)c54 (stereo not drawn) [HB-12b], the maximum absorption wavelength [1] was 621 nm, the molar extinction coefficient [1] was 22,500 M^−1cm^−1 and the singlet oxygen yield [2] was 22%.
For COc1c2c3c4c(c(NCCS(=O)(=O)OC)c(=O)c5c(NCCS(=O)(=O)OC)cc(OC)c(c6c(OC)cc(O)c(c1=O)c63)c54)C=C(C)C2C(C)=O (stereo not drawn) [HB-12c], the maximum absorption wavelength [1] was 622 nm, the molar extinction coefficient [1] was 23,500 M^−1cm^−1 and the singlet oxygen yield [2] was 22%.
For COc1c2c3c4c(c(NCCS(=O)(=O)OC)c(=O)c5c(O)cc(OC)c(c6c(OC)cc(NCCS(=O)(=O)OC)c(c1=O)c63)c54)C=C(C)C2C(C)=O (stereo not drawn) [HB-12d], the maximum absorption wavelength [1] was 624 nm, the molar extinction coefficient [1] was 21,500 M^−1cm^−1 and the singlet oxygen yield [2] was 21%.
With COC(=O)C1CCC(CNc2c(NCC3CCC(C(=O)OC)CC3)c3c(=O)cc(OC)c4c5c(OC)cc(=O)c6c(O)c(OC)c7c(c(c2C=C(C)C7C(C)=O)c34)c65)CC1 (stereo not drawn) [HB-13a-AcE] the maximum absorption wavelength [1] was 625 nm, the molar extinction coefficient [1] was 27,000 M^−1cm^−1 and the singlet oxygen yield [2] was 25%.
In the case of COCCOCCNC(=O)C1CCC(CNc2c(NCC3CCC(C(=O)NCCOCCOC)CC3)c3c(=O)cc(OC)c4c5c(OC)cc(=O)c6c(O)c(OC)c7c(c(c2C=C(C)C7C(C)=O)c34)c65)CC1 (stereo not drawn) [HB-13a-NH-PEG1], the maximum absorption wavelength [1] is reported as 624 nm, the molar extinction coefficient [1] is reported as 31,000 M^−1cm^−1 and the singlet oxygen yield [2] is reported as 32%.
In the case of COc1c(O)c2c(=O)cc(OC)c3c4c(OC)cc(=O)c5c(NCC6CCC(C(=O)O)CC6)c(NCC6CCC(C(=O)O)CC6)c6c(c(c1C(C(C)=O)C(C)=C6)c23)c54 (stereo not drawn) [HB-13a], the maximum absorption wavelength [1] is reported as 621 nm, the molar extinction coefficient [1] is reported as 28,500 M^−1cm^−1 and the singlet oxygen yield [2] is reported as 28%.
With COC(=O)C1CCC(CNc2c(O)c3c(=O)cc(OC)c4c5c(OC)cc(=O)c6c(NCC7CCC(C(=O)OC)CC7)c(OC)c7c(c(c2C=C(C)C7C(C)=O)c34)c65)CC1 (stereo not drawn) [HB-13b-AcE] the maximum absorption wavelength [1] was 623 nm, the molar extinction coefficient [1] was 27,000 M^−1cm^−1 and the singlet oxygen yield [2] was 24%.
With COCCOCCOCCOCCOCCNC(=O)C1CCC(CNc2c(O)c3c(=O)cc(OC)c4c5c(OC)cc(=O)c6c(NCC7CCC(C(=O)NCCOCCOCCOCCOCCOC)CC7)c(OC)c7c(c(c2C=C(C)C7C(C)=O)c34)c65)CC1 (stereo not drawn) [HB-13b-NH-PEG4] the maximum absorption wavelength [1] was 622 nm, the molar extinction coefficient [1] was 31,000 M^−1cm^−1 and the singlet oxygen yield [2] was 34%.
With COc1c(NCC2CCC(C(=O)O)CC2)c2c(=O)cc(OC)c3c4c(OC)cc(=O)c5c(O)c(NCC6CCC(C(=O)O)CC6)c6c(c(c1C(C(C)=O)C(C)=C6)c23)c54 (stereo not drawn) [HB-13b] the maximum absorption wavelength [1] was 621 nm, the molar extinction coefficient [1] was 28,000 M^−1cm^−1 and the singlet oxygen yield [2] was 26%.
For COC(=O)C1CCC(CNc2c3c4c5c(c(OC)c(=O)c6c(O)cc(OC)c(c7c(OC)cc(NCC8CCC(C(=O)OC)CC8)c(c2=O)c74)c65)C(C(C)=O)C(C)=C3)CC1 (stereo not drawn) [HB-13c-AcE], the maximum absorption wavelength [1] was 621 nm, the molar extinction coefficient [1] was 28,500 M^−1cm^−1 and the singlet oxygen yield [2] was 30%.
In the case of COCCOCCOCCOCCOCCOCCOCCOCCOCCNC(=O)C1CCC(CNc2c3c4c5c(c(OC)c(=O)c6c(O)cc(OC)c(c7c(OC)cc(NCC8CCC(C(=O)NCCOCCOCCOCCOCCOCCOCCOCCOCCOC)CC8)c(c2=O)c74)c65)C(C(C)=O)C(C)=C3)CC1 (stereo not drawn) [HB-13c-NH-PEG8], the maximum absorption wavelength [1] is reported as 630 nm, the molar extinction coefficient [1] is reported as 33,500 M^−1cm^−1 and the singlet oxygen yield [2] is reported as 39%.
In the case of COCCOCCOCCOCCOC(=O)C1CCC(CNc2c3c4c5c(c(OC)c(=O)c6c(O)cc(OC)c(c7c(OC)cc(NCC8CCC(C(=O)OCCOCCOCCOCCOC)CC8)c(c2=O)c74)c65)C(C(C)=O)C(C)=C3)CC1 (stereo not drawn) [HB-13c-PEG4], the maximum absorption wavelength [1] is reported as 630 nm, the molar extinction coefficient [1] is reported as 32,500 M^−1cm^−1 and the singlet oxygen yield [2] is reported as 38%.
For COC(=O)C1CCC(CNc2c3c4c5c(c(OC)c(=O)c6c(NCC7CCC(C(=O)OC)CC7)cc(OC)c(c7c(OC)cc(O)c(c2=O)c74)c65)C(C(C)=O)C(C)=C3)CC1 (stereo not drawn) [HB-13d-AcE], the maximum absorption wavelength [1] was 623 nm, the molar extinction coefficient [1] was 28,000 M^−1cm^−1 and the singlet oxygen yield [2] was 25%.
With COCCOCCOCCOCCOCCOCCOCCOCCOCCNC(=O)C1CCC(CNc2c3c4c5c(c(OC)c(=O)c6c(NCC7CCC(C(=O)NCCOCCOCCOCCOCCOCCOCCOCCOCCOC)CC7)cc(OC)c(c7c(OC)cc(O)c(c2=O)c74)c65)C(C(C)=O)C(C)=C3)CC1 (stereo not drawn) [HB-13d-NH-PEG8] the maximum absorption wavelength [1] was 628 nm, the molar extinction coefficient [1] was 31,500 M^−1cm^−1 and the singlet oxygen yield [2] was 32%.
With COCCOCCOCCOCCOCCOCCOCCOCCOCCOCCOCCOCCOCCOCCOCCOCCOC(=O)C1CCC(CNc2c3c4c5c(c(OC)c(=O)c6c(NCC7CCC(C(=O)OCCOCCOCCOCCOCCOCCOCCOCCOCCOCCOCCOCCOCCOCCOCCOCCOC)CC7)cc(OC)c(c7c(OC)cc(O)c(c2=O)c74)c65)C(C(C)=O)C(C)=C3)CC1 (stereo not drawn) [HB-13d-PEG16] the maximum absorption wavelength [1] was 624 nm, the molar extinction coefficient [1] was 30,500 M^−1cm^−1 and the singlet oxygen yield [2] was 33%.
For COc1c2c3c4c(c(NCC5CCC(C(=O)O)CC5)c(=O)c5c(O)cc(OC)c(c6c(OC)cc(NCC7CCC(C(=O)O)CC7)c(c1=O)c63)c54)C=C(C)C2C(C)=O (stereo not drawn) [HB-13d], the maximum absorption wavelength [1] was 621 nm, the molar extinction coefficient [1] was 28,000 M^−1cm^−1 and the singlet oxygen yield [2] was 28%.
With COCCOC(=O)C1CCC(Nc2c(NC3CCC(C(=O)OCCOC)CC3)c3c(=O)cc(OC)c4c5c(OC)cc(=O)c6c(O)c(OC)c7c(c(c2C=C(C)C7C(C)=O)c34)c65)CC1 (stereo not drawn) [HB-14a-PEG1] the maximum absorption wavelength [1] was 622 nm, the molar extinction coefficient [1] was 30,500 M^−1cm^−1 and the singlet oxygen yield [2] was 32%.
In the case of COc1c(O)c2c(=O)cc(OC)c3c4c(OC)cc(=O)c5c(NC6CCC(C(=O)O)CC6)c(NC6CCC(C(=O)O)CC6)c6c(c(c1C(C(C)=O)C(C)=C6)c23)c54 (stereo not drawn) [HB-14a], the maximum absorption wavelength [1] is reported as 625 nm, the molar extinction coefficient [1] is reported as 27,000 M^−1cm^−1 and the singlet oxygen yield [2] is reported as 25%.
With COCCOCCOCCOCCOCCOCCOC(=O)C1CCC(Nc2c(O)c3c(=O)cc(OC)c4c5c(OC)cc(=O)c6c(NC7CCC(C(=O)OCCOCCOCCOCCOCCOCCOC)CC7)c(OC)c7c(c(c2C=C(C)C7C(C)=O)c34)c65)CC1 (stereo not drawn) [HB-14b-PEG6] the maximum absorption wavelength [1] was 624 nm, the molar extinction coefficient [1] was 30,500 M^−1cm^−1 and the singlet oxygen yield [2] was 34%.
With COc1c(NC2CCC(C(=O)O)CC2)c2c(=O)cc(OC)c3c4c(OC)cc(=O)c5c(O)c(NC6CCC(C(=O)O)CC6)c6c(c(c1C(C(C)=O)C(C)=C6)c23)c54 (stereo not drawn) [HB-14b] the maximum absorption wavelength [1] was 623 nm, the molar extinction coefficient [1] was 27,000 M^−1cm^−1 and the singlet oxygen yield [2] was 24%.
With COCCOCCOCCOCCOCCOCCOCCOCCOCCOCCOCCOCCOC(=O)C1CCC(Nc2c3c4c5c(c(OC)c(=O)c6c(O)cc(OC)c(c7c(OC)cc(NC8CCC(C(=O)OCCOCCOCCOCCOCCOCCOCCOCCOCCOCCOCCOCCOC)CC8)c(c2=O)c74)c65)C(C(C)=O)C(C)=C3)CC1 (stereo not drawn) [HB-14c-PEG12] the maximum absorption wavelength [1] was 628 nm, the molar extinction coefficient [1] was 33,500 M^−1cm^−1 and the singlet oxygen yield [2] was 38%.
For COc1c2c3c4c(c(NC5CCC(C(=O)O)CC5)c(=O)c5c(NC6CCC(C(=O)O)CC6)cc(OC)c(c6c(OC)cc(O)c(c1=O)c63)c54)C=C(C)C2C(C)=O (stereo not drawn) [HB-14c], the maximum absorption wavelength [1] was 621 nm, the molar extinction coefficient [1] was 28,000 M^−1cm^−1 and the singlet oxygen yield [2] was 26%.
For COCCOCCOCCOCCOCCOCCOC(=O)C1CCC(Nc2c3c4c5c(c(OC)c(=O)c6c(NC7CCC(C(=O)OCCOCCOCCOCCOCCOCCOC)CC7)cc(OC)c(c7c(OC)cc(O)c(c2=O)c74)c65)C(C(C)=O)C(C)=C3)CC1 (stereo not drawn) [HB-14d-PEG6], the maximum absorption wavelength [1] was 630 nm, the molar extinction coefficient [1] was 31,500 M^−1cm^−1 and the singlet oxygen yield [2] was 32%.
